Key:
Mer tyrosine kinase = Mer tyrosine kinase (Homo sapiens (Human), UniProt Q12866); test: Evaluation of activity against Mer tyrosine kinase; format: biochemical
Tyro3 tyrosine kinase = Tyro3 tyrosine kinase (Homo sapiens (Human), UniProt Q06418); test: Evaluation of activity against Tyro3 tyrosine kinase; format: biochemical
Sequence of Tyro3 tyrosine kinase (Q06418 41-890): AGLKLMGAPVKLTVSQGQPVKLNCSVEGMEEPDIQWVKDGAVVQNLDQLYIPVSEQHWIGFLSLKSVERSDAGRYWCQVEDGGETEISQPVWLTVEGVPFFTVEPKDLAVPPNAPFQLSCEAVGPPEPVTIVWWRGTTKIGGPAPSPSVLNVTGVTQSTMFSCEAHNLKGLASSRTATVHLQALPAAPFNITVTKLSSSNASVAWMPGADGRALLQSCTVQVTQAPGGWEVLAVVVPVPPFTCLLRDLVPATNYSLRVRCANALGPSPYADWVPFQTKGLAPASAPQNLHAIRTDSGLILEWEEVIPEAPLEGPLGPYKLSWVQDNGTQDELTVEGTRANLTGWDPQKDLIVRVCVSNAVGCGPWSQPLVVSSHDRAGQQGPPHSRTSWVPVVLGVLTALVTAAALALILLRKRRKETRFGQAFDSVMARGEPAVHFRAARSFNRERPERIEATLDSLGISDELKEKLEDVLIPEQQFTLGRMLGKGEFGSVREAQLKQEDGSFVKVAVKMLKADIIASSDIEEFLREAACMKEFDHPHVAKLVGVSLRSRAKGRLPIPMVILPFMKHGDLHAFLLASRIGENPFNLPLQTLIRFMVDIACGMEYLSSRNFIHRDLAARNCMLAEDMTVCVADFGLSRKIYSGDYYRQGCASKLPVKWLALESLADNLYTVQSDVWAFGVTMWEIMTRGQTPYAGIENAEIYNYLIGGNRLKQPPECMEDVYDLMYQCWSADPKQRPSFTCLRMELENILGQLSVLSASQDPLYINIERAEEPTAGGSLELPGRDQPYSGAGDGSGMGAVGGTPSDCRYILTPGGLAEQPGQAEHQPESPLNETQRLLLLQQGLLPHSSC

Sequence of Mer tyrosine kinase (Q12866 21-999): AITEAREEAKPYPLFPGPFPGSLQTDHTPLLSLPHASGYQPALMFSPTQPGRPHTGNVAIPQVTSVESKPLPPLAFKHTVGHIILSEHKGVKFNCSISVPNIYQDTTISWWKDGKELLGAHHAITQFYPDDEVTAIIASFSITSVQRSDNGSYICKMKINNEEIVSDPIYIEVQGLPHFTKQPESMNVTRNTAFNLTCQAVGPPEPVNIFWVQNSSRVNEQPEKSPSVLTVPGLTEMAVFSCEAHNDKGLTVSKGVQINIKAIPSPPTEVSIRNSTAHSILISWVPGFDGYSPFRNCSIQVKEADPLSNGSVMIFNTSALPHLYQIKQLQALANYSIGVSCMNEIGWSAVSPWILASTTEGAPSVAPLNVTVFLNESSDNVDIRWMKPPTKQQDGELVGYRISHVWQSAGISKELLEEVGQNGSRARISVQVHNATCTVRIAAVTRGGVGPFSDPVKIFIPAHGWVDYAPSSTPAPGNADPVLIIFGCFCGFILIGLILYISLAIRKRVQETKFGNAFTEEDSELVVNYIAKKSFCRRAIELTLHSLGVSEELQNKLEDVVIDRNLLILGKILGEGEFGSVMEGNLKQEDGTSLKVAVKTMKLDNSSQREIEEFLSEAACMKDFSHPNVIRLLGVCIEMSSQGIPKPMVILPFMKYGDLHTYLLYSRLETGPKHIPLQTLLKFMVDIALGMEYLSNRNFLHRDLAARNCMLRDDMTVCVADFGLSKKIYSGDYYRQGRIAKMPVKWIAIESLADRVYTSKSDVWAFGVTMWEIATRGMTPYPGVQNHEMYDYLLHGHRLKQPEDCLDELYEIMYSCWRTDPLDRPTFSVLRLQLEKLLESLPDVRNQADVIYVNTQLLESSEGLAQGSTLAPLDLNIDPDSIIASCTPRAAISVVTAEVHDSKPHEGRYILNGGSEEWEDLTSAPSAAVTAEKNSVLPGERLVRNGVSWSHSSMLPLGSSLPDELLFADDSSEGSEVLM

SMILES | IC50 (Mer tyrosine kinase) [nM] | IC50 (Tyro3 tyrosine kinase) [nM]
CCC[C@H](C)Nc1ncc2c(C3CCN(S(=O)(=O)C4CCN(C)CC4)CC3)cn([C@H]3CC[C@H](O)CC3)c2n1 [compound 1, (1S,4R)-4-(5-(1-((1-methylpiperidin-4-yl)sulfonyl)piperidin-4-yl)-2-(((S)-pentan-2-yl)amino)-7H-pyrrolo[2,3-d]pyrimidin-7-yl)cyclohexan-1-ol] | < 10 | 10 to 100
CCC[C@H](C)Nc1ncc2c(C3CCN(S(=O)(=O)C4CCNCC4)CC3)cn([C@H]3CC[C@H](O)CC3)c2n1 [compound 3, (1S,4R)-4-(2-(((S)-pentan-2-yl)amino)-5-(1-(piperidin-4-ylsulfonyl)piperidin-4-yl)-7H-pyrrolo[2,3-d]pyrimidin-7-yl)cyclohexan-1-ol] | < 10 | 10 to 100
CCC[C@H](C)Nc1ncc2c(C3CCN(S(=O)(=O)CCOC)CC3)cn([C@H]3CC[C@H](O)CC3)c2n1 [compound 4, (1S,4R)-4-(5-(1-((2-methoxyethyl)sulfonyl)piperidin-4-yl)-2-(((S)-pentan-2-yl)amino)-7H-pyrrolo[2,3-d]pyrimidin-7-yl)cyclohexan-1-ol] | < 10 | 100 to 1000
CCC[C@H](C)Nc1ncc2c(C3CCN(C(=O)CCOC)CC3)cn([C@H]3CC[C@H](O)CC3)c2n1 [compound 9, 1-(4-(7-((1R,4S)-4-hydroxycyclohexyl)-2-(((S)-pentan-2-yl)amino)-7H-pyrrolo[2,3-d]pyrimidin-5-yl)piperidin-1-yl)-3-methoxypropan-1-one] | < 10 | 100 to 1000
CCCCNc1ncc2c(C3CC4CCC(C3)N4)cn([C@H]3CC[C@H](O)CC3)c2n1 (stereo partly drawn) [compound 12, (1R,4R)-4-(5-((1R,3S,5S)-8-azabicyclo[3.2.1]octan-3-yl)-2-(butylamino)-7H-pyrrolo[2,3-d]pyrimidin-7-yl)cyclohexan-1-ol] | – | 1000 to 30000
CCC[C@H](C)Nc1ncc2c(C3CCN(C(=O)C4CCCN4C)CC3)cn([C@H]3CC[C@H](O)CC3)c2n1 (stereo partly drawn) [compound 16, 7-((1R,4S)-4-hydroxycyclohexyl)-5-(1-(methylprolyl)piperidin-4-yl)-2-(((S)-pentan-2-yl)amino)-7H-pyrrolo[2,3-d]pyrimidine] | < 10 | 10 to 100
CCC[C@H](C)Nc1ncc2c(C3CCN(C(=O)c4ccccc4)CC3)cn([C@H]3CC[C@H](O)CC3)c2n1 [compound 30, (4-(7-((1R,4S)-4-hydroxycyclohexyl)-2-(((S)-pentan-2-yl)amino)-7H-pyrrolo[2,3-d]pyrimidin-5-yl)piperidin-1-yl)(phenyl)methanone] | < 10 | 10 to 100
CCC[C@H](C)Nc1ncc2c(C3CCN(C(=O)c4ccc(OC)cc4)CC3)cn([C@H]3CC[C@H](O)CC3)c2n1 [compound 31, (4-(7-((1R,4S)-4-hydroxycyclohexyl)-2-(((S)-pentan-2-yl)amino)-7H-pyrrolo[2,3-d]pyrimidin-5-yl)piperidin-1-yl)(4-methoxyphenyl)methanone] | < 10 | 100 to 1000
CCC[C@H](C)Nc1ncc2c(C3CCN(C(=O)c4cccc(OC)c4)CC3)cn([C@H]3CC[C@H](O)CC3)c2n1 [compound 32, (4-(7-((1R,4S)-4-hydroxycyclohexyl)-2-(((S)-pentan-2-yl)amino)-7H-pyrrolo[2,3-d]pyrimidin-5-yl)piperidin-1-yl)(3-methoxyphenyl)methanone] | < 10 | 100 to 1000

Results, then the compound that gave them:

IC50 (Mer tyrosine kinase) [nM] | IC50 (Tyro3 tyrosine kinase) [nM] | SMILES
< 10 | 10 to 100 | CCC[C@H](C)Nc1ncc2c(C3CCN(C(=O)C4CCNCC4)CC3)cn([C@H]3CC[C@H](O)CC3)c2n1 [compound 8, (4-(7-((1R,4S)-4-hydroxycyclohexyl)-2-(((S)-pentan-2-yl)amino)-7H-pyrrolo[2,3-d]pyrimidin-5-yl)piperidin-1-yl)(piperidin-4-yl)methanone]
< 10 | 10 to 100 | CCC[C@H](C)Nc1ncc2c(C3CCN(C(=O)C4CNC4)CC3)cn([C@H]3CC[C@H](O)CC3)c2n1 [compound 13, Azetidin-3-yl(4-(7-((1R,4S)-4-hydroxycyclohexyl)-2-(((S)-pentan-2-yl)amino)-7H-pyrrolo[2,3-d]pyrimidin-5-yl)piperidin-1-yl)methanone]
< 10 | 10 to 100 | CCC[C@H](C)Nc1ncc2c(C3CCN(C(=O)C4CN(C)C4)CC3)cn([C@H]3CC[C@H](O)CC3)c2n1 [compound 14, (4-(7-((1R,4S)-4-hydroxycyclohexyl)-2-(((S)-pentan-2-yl)amino)-7H-pyrrolo[2,3-d]pyrimidin-5-yl)piperidin-1-yl)(1-methylazetidin-3-yl)methanone]
< 10 | 10 to 100 | CCC[C@H](C)Nc1ncc2c(C3CCN(C(=O)C4CCCN4)CC3)cn([C@H]3CC[C@H](O)CC3)c2n1 (stereo partly drawn) [compound 15, 7-((1R,4S)-4-hydroxycyclohexyl)-2-(((S)-pentan-2-yl)amino)-5-(1-prolylpiperidin-4-yl)-7H-pyrrolo[2,3-d]pyrimidine]
< 10 | 10 to 100 | CCC[C@H](C)Nc1ncc2c(C3CCN(C(=O)C4CCNC4)CC3)cn([C@H]3CC[C@H](O)CC3)c2n1 (stereo partly drawn) [compound 17, (4-(7-((1R,4S)-4-hydroxycyclohexyl)-2-(((S)-pentan-2-yl)amino)-7H-pyrrolo[2,3-d]pyrimidin-5-yl)piperidin-1-yl)(pyrrolidin-3-yl)methanone]
< 10 | 10 to 100 | CCC[C@H](C)Nc1ncc2c(C3CCN(C(=O)C4CCN(C)C4)CC3)cn([C@H]3CC[C@H](O)CC3)c2n1 (stereo partly drawn) [compound 18, (4-(7-((1R,4S)-4-hydroxycyclohexyl)-2-(((S)-pentan-2-yl)amino)-7H-pyrrolo[2,3-d]pyrimidin-5-yl)piperidin-1-yl)(1-methylpyrrolidin-3-yl)methanone]
< 10 | 10 to 100 | CCC[C@H](C)Nc1ncc2c(C3CCN(C(=O)[C@@H]4CCCCN4)CC3)cn([C@H]3CC[C@H](O)CC3)c2n1 [compound 19, (4-(7-((1R,4S)-4-hydroxycyclohexyl)-2-(((S)-pentan-2-yl)amino)-7H-pyrrolo[2,3-d]pyrimidin-5-yl)piperidin-1-yl)((S)-piperidin-2-yl)methanone]
< 10 | 100 to 1000 | CCC[C@H](C)Nc1ncc2c(C3CCN(C(=O)[C@H]4CCCCN4)CC3)cn([C@H]3CC[C@H](O)CC3)c2n1 [compound 20, (4-(7-((1R,4S)-4-hydroxycyclohexyl)-2-(((S)-pentan-2-yl)amino)-7H-pyrrolo[2,3-d]pyrimidin-5-yl)piperidin-1-yl)((R)-piperidin-2-yl)methanone]
< 10 | 10 to 100 | CCC[C@H](C)Nc1ncc2c(C3CCN(C(=O)[C@@H]4CCCNC4)CC3)cn([C@H]3CC[C@H](O)CC3)c2n1 [compound 23, (4-(7-((1R,4S)-4-hydroxycyclohexyl)-2-(((S)-pentan-2-yl)amino)-7H-pyrrolo[2,3-d]pyrimidin-5-yl)piperidin-1-yl)((R)-piperidin-3-yl)methanone]
< 10 | 10 to 100 | CCC[C@H](C)Nc1ncc2c(C3CCN(C(=O)[C@H]4CCCNC4)CC3)cn([C@H]3CC[C@H](O)CC3)c2n1 [compound 24, (4-(7-((1R,4S)-4-hydroxycyclohexyl)-2-(((S)-pentan-2-yl)amino)-7H-pyrrolo[2,3-d]pyrimidin-5-yl)piperidin-1-yl)((S)-piperidin-3-yl)methanone]

From US11001586B2, “Alkyl pyrrolopyrimidine analogs and methods of making and using same” (The University of North Carolina at Chapel Hill, priority 2016, dated 2021)
